According to US20250332173A1, “COMPOUNDS AND METHODS FOR MODULATING NUCLEIC ACID SPLICING” (REMIX THERAPEUTICS INC., priority 2021, published 2025):
Where a name gives a salt, the structure may show the parent alone.

Assays:
Type in all cases: cell-based, human
Target C = experiment: RT-qPCR splicing assay panel, Target C canonical junction (CJ) mRNA; settings: Homo sapiens; Table 5 panel; canonical junction qPCR; compound concentration having 50% response in CJ decrease; read-out: Target C IC50 (decrease in CJ mRNA levels)
How it was run: (§1)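 Canonical-junction transcript levels in compound-treated A673 or K562 cells (24 h, up to 10 uM final) were determined from lysates by RT-qPCR with housekeeping-gene normalization.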

SMN2 mRNA = experiment: RT-qPCR splicing assay, SMN2 canonical junction (CJ) mRNA; settings: Homo sapiens; Table 5 panel; canonical junction qPCR; compound concentration having 50% response in CJ decrease; read-out: SMN2 IC50 (decrease in CJ mRNA levels)
How it was run: as §1

MYB = experiment: HiBiT protein abundance assay, MYB HiBiT K562 cell line; settings: HiBiT K562 cell line, 24 hours, top dose 10 μM; read-out: Effect on protein abundance, MYB (IC50 category)
How it was run: (§2)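 Endogenous targets in K562 knock-in lines carried a HiBiT tag and were treated for 24 h at 37 °C with 10-point 3-fold dilutions (top 10 μM final, DMSO ≤0.25%). Abundance was read as lytic Nano-Glo HiBiT luminescence. IC50 came from a four-parameter logistic fit of normalized response.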

HTT = experiment: HiBiT protein abundance assay, HTT HiBiT K562 cell line; settings: HiBiT K562 cell line, 24 hours, top dose 10 μM; read-out: Effect on protein abundance, HTT (IC50 category)
How it was run: as §2

| IC50 (Target C) | IC50 (SMN2 mRNA) | IC50 (MYB) | IC50 (HTT) | SMILES |
| --- | --- | --- | --- | --- |
| > 10000 nM | 1000 to 10000 nM | 1000 to 10000 nM | 1000 to 10000 nM | Cc1cc(-c2ccc3c(=O)n(N4CCN(C)CC4)cnc3c2)cc2cn(C)nc12 [Compound 175] |
| 1000 to 10000 nM | 100 to 1000 nM | 100 to 1000 nM | 1000 to 10000 nM | Cc1cn2nc(-c3ccc4c(=O)n(C5CCN(C)CC5)cnc4c3)cc(C)c2n1 [Compound 176] |
| 1000 to 10000 nM | > 10000 nM | > 10000 nM | > 10000 nM | CN1CCC(c2ccc3c(=O)n(-c4ccc5nn(C)cc5c4)cnc3c2)CC1 [Compound 177] |
| > 10000 nM | > 10000 nM | > 10000 nM | > 10000 nM | CN1CCN(c2ccc3c(=O)n(-c4ccc5cn(C)nc5c4)cnc3c2)CC1 [Compound 178] |
| > 10000 nM | 1000 to 10000 nM | > 10000 nM | > 10000 nM | Cc1cc(-c2ccc3c(=O)n(C4CC(C)(C)NC(C)(C)C4)cnc3n2)cc2cn(C)nc12 [Compound 179] |
| 100 to 1000 nM | < 100 nM | < 100 nM | < 100 nM | Cc1cn2nc(-c3ccc4c(=O)n(C5CCNCC5)cnc4c3)cc(C)c2n1 [Compound 181] |
| 1000 to 10000 nM | 100 to 1000 nM | 1000 to 10000 nM | 1000 to 10000 nM | Cc1cc(-c2ccc3c(=O)n(C4CCNC5(CC5)C4)ncc3c2)cc2cn(C)nc12 (centres unmarked) [Compound 512] |
| 1000 to 10000 nM | 100 to 1000 nM | 1000 to 10000 nM | 100 to 1000 nM | Cc1nc2c(C)cc(-c3ccc4c(=O)n(C5CCNC6(CC6)C5)ncc4c3)cc2o1 (centres unmarked) [Compound 513] |
| < 100 nM | < 100 nM | < 100 nM | < 100 nM | COc1cc(-c2ccc3c(=O)n(C4CCNCC4)ccc3c2)nn2cc(C)nc12 [Compound 514, 6-(8-methoxy-2-methyl-imidazo[1,2-b]pyridazin-6-yl)-2-(4-piperidyl) isoquinolin-1-one; hydrochloride] |
| 1000 to 10000 nM | < 100 nM | 1000 to 10000 nM | 100 to 1000 nM | Cc1cn2nc(-c3ccc4c(=O)n(C5CCN(CCF)CC5)ncc4c3)cc(C)c2n1 [Compound 515] |
| 1000 to 10000 nM | 1000 to 10000 nM | 1000 to 10000 nM | 1000 to 10000 nM | Cc1cn2nc(-c3ccc4c(=O)n(C5CCNCC5)ccc4c3)cc(C(=O)O)c2n1 [Compound 516, 2-methyl-6-[1-oxo-2-(4-piperidyl)-6-isoquinolyl]imidazo[1,2-b]pyridazine-8-carboxylic acid] |
| 1000 to 10000 nM | < 100 nM | 100 to 1000 nM | 1000 to 10000 nM | COC(=O)c1cc(-c2ccc3c(=O)n(C4CCNCC4)ccc3c2)nn2cc(C)nc12 [Compound 517, methyl 2-methyl-6-[1-oxo-2-(4-piperidyl)-6-isoquinolyl]imidazo[1,2-b]pyridazine-8-carboxylate] |
| > 10000 nM | 100 to 1000 nM | 1000 to 10000 nM | 1000 to 10000 nM | CNC(=O)c1cc(-c2ccc3c(=O)n(C4CCNCC4)ccc3c2)nn2cc(C)nc12 [Compound 518, N, 2-dimethyl-6-[1-oxo-2-(4-piperidyl)-6-isoquinolyl]imidazo[1,2-b]pyridazine-8-carboxamide] |
| < 100 nM | < 100 nM | < 100 nM | < 100 nM | Cc1cn2nc(-c3ccc4c(=O)n(C5CCNCC5)ccc4c3)cc(Oc3ccccc3)c2n1 [Compound 519, 6-(2-methyl-8-phenoxy-imidazo[1,2-b]pyridazin-6-yl)-2-(4-piperidyl)isoquinolin-1-one] |
| 1000 to 10000 nM | < 100 nM | 100 to 1000 nM | 100 to 1000 nM | Cc1cn2nc(-c3ccc4c(=O)n(C5CCNCC5)ccc4c3)cc(CC#N)c2n1 [Compound 520, 2-[2-methyl-6-[1-oxo-2-(4-piperidyl)-6-isoquinolyl]imidazo[1,2-b]pyridazin-8-yl]acetonitrile] |
| 1000 to 10000 nM | 1000 to 10000 nM | 1000 to 10000 nM | 1000 to 10000 nM | Cn1ccc2c(cnn2-c2ccc3c(=O)n(C4CCNCC4)ccc3c2)c1=O [Compound 521] |

| IC50 (Target C) | IC50 (SMN2 mRNA) | IC50 (MYB) | IC50 (HTT) | SMILES |
| --- | --- | --- | --- | --- |
| > 10000 nM | 1000 to 10000 nM | 1000 to 10000 nM | > 10000 nM | Cn1ccc2nn(-c3ccc4c(=O)n(C5CCNCC5)ccc4c3)cc2c1=O [Compound 522, 6-{5-methyl-4-oxopyrazolo[4,3-c]pyridin-2-yl}-2-(piperidin-4-yl)isoquinolin-1-one] |
| > 10000 nM | 100 to 1000 nM | 1000 to 10000 nM | 1000 to 10000 nM | Cc1cn2nc(-c3ccc4c(=O)n(C5CCNCC5)ccc4c3)cc(C(N)=O)c2n1 [Compound 523, 2-methyl-6-[1-oxo-2-(4-piperidyl)-6-isoquinolyl]imidazo[1,2-b]pyridazine-8-carboxamide] |
| > 10000 nM | > 10000 nM | > 10000 nM | > 10000 nM | Cc1cn2nc(-c3ccc4c(=O)n(C5CCNCC5)ccc4c3)cc(C(=O)N(C)C)c2n1 [Compound 524, N, N, 2-trimethyl-6-[1-oxo-2-(4-piperidyl)-6-isoquinolyl]imidazo[1,2-b]pyridazine-8-carboxamide] |
| 100 to 1000 nM | < 100 nM | < 100 nM | < 100 nM | Cc1cn2nc(-c3ccc4c(=O)n(C5CCNCC5)ccc4c3)cc(CO)c2n1 [Compound 525, 6-[8-(hydroxymethyl)-2-methyl-imidazo[1,2-b]pyridazin-6-yl]-2-(4-piperidyl) isoquinolin-1-one] |
| 1000 to 10000 nM | < 100 nM | < 100 nM | 100 to 1000 nM | Cc1cn2nc(-c3ccc4c(=O)n(C5CCNCC5)ccc4c3)cc(OCc3ccccc3)c2n1 [Compound 526, 6-(8-benzyloxy-2-methyl-imidazo[1,2-b]pyridazin-6-yl)-2-(4-piperidyl) isoquinolin-1-one] |
| 1000 to 10000 nM | < 100 nM | 100 to 1000 nM | 100 to 1000 nM | COC(=O)Cc1cc(-c2ccc3c(=O)n(C4CCNCC4)ccc3c2)nn2cc(C)nc12 [Compound 527] |
| 1000 to 10000 nM | < 100 nM | 1000 to 10000 nM | 100 to 1000 nM | Cc1cn2nc(-c3ccc4c(=O)n(C5CCNCC5)ccc4c3)cc(CC(N)=O)c2n1 [Compound 528, 2-(2-methyl-6-(1-oxo-2-(piperidin-4-yl)-1,2-dihydroisoquinolin-6-yl)imidazo[1,2-b]pyridazin-8-yl) acetamide] |
| 1000 to 10000 nM | < 100 nM | 100 to 1000 nM | 100 to 1000 nM | CCOC(=O)c1cc(-c2ccc3c(=O)n(C4CCNCC4)ccc3c2)nn2cc(C)nc12 [Compound 529, ethyl 2-methyl-6-[1-oxo-2-(4-piperidyl)-6-isoquinolyl]imidazo[1,2-b]pyridazine-8-carboxylate] |
| > 10000 nM | > 10000 nM | > 10000 nM | > 10000 nM | Cn1cc2c(=O)n(-c3ccc4c(=O)n(C5CCNCC5)ccc4c3)ccc2n1 [Compound 530, 6-{2-methyl-4-oxopyrazolo[4,3-c]pyridin-5-yl}-2-(piperidin-4-yl)isoquinolin-1-one] |
| 100 to 1000 nM | < 100 nM | < 100 nM | < 100 nM | Cc1cn2nc(-c3ccc4c(=O)n(C5CCNCC5)ccc4c3)cc(CC(=O)O)c2n1 [Compound 531, 2-[2-methyl-6-[1-oxo-2-(4-piperidyl)-6-isoquinolyl]imidazo[1,2-b]pyridazin-8-yl]acetic acid] |
| 1000 to 10000 nM | < 100 nM | < 100 nM | 100 to 1000 nM | Cc1cn2nc(-c3ccc4c(=O)n(C5CCNCC5)ccc4c3)cc(CCO)c2n1 [Compound 533, 6-[8-(2-hydroxyethyl)-2-methyl-imidazo[1,2-b]pyridazin-6-yl]-2-(4-piperidyl)isoquinolin-1-one] |
| 1000 to 10000 nM | < 100 nM | 100 to 1000 nM | 1000 to 10000 nM | CNC(=O)Cc1cc(-c2ccc3c(=O)n(C4CCNCC4)ccc3c2)nn2cc(C)nc12 [Compound 534, N-methyl-2-[2-methyl-6-[1-oxo-2-(4-piperidyl)-6-isoquinolyl]imidazo[1,2-b]pyridazin-8-yl]acetamide] |
| > 10000 nM | < 100 nM | 1000 to 10000 nM | 1000 to 10000 nM | Cc1cn2nc(-c3ccc4c(=O)n(C5CCNCC5)ccc4c3)cc(Cc3nnc[nH]3)c2n1 [Compound 535, 6-[2-methyl-8-(4H-1,2,4-triazol-3-ylmethyl)imidazo[1,2-b]pyridazin-6-yl]-2-(4-piperidyl) isoquinolin-1-one] |
| > 10000 nM | 1000 to 10000 nM | > 10000 nM | > 10000 nM | Cc1cn2nc(-c3ccc4c(=O)n(C5CCNCC5)ccc4c3)cc(Cc3nnn[nH]3)c2n1 [Compound 536, 6-[2-methyl-8-(1H-tetrazol-5-ylmethyl)imidazo[1,2-b]pyridazin-6-yl]-2-(4-piperidyl) isoquinolin-1-one] |
| 100 to 1000 nM | < 100 nM | 100 to 1000 nM | < 100 nM | CCN1CCC(n2ncc3cc(-c4cc(C)c5nc(C)cn5n4)cc(F)c3c2=O)CC1 [Compound 537] |

| SMILES | IC50 (Target C) | IC50 (SMN2 mRNA) | IC50 (MYB) | IC50 (HTT) |
| --- | --- | --- | --- | --- |
| CN(c1ccc2c(=O)n(-c3ccc4nn(C)cc4c3)cnc2c1)C1CCNCC1 [Compound 180] | 1000 to 10000 nM | > 10000 nM | > 10000 nM | > 10000 nM |
